Source: patent US10336790B2 (priority 2014, dated 2019)
Ends that are not written are not given here.

Legend:
[1] = tested on: lung epithelial A549 cell line; assay: Peptide cytotoxicity, Trypan Blue exclusion assay; format: cell-based, human
Protocol: (§1) Cytotoxicity studies were performed using three mammalian cell lines which included mouse macrophage J774.16 cell line, human lung epithelial A549 cell line, and sheep red blood cells (sRBCs) in Trypticase soy agar (TSA). Mouse macrophage J774.16 cell line (maintained in antibiotic-free Dulbecco's modified Eagle's medium containing 20% fetal bovine serum, 5% NCTC 109, 1% nonessential amino acids and 1% glutamine) or human lung epithelial A549 cell line (maintained in antibiotic-free Ham's F12 medium supplemented with 10% fetal bovine serum) was seeded at a density of approximately 1×10^5 cells per ml in Lab-tek Permanox eight-chamber microscopy slides (Nunc, Inc., Naperville, Ill.) and incubated for 3 (J774.16) or 5 (A549) days before use. After cell differentiation to a confluence of 70 to 80%, the culture media was replaced with fresh media containing the different AMPS at 64 μg/ml or at toxic dose (320 μg/ml) or controls (media only for negative control or 50 μM NaN3 for positive control). Similarly, AMPS or 1% Triton 100-X as positive control or media only (negative control) was each added to separate wells and allowed to be absorbed into agar at room temperature. All experiments were incubated for 24 hr at 37° C., 5% CO2. All experiments were done in duplicates. Cytotoxicity for J774.16 or A549 cells was monitored using Trypan Blue exclusion assay and the ratio of dead to viable cells was recorded. For sRBCs, the presence of cell lysis after 24 hr of incubation at 37° C. following treatment indicated cytotoxicity.

macrophage J774.16 cells = assay: Peptide cytotoxicity, Trypan Blue exclusion assay; format: cell-based, mouse; conditions: for cell death: 170 μM peptide, negative control 10%
Protocol: as §1

[2] = tested on: M. tuberculosis strain MC26230
[3] = 170 μM peptide concentration, compared with the negative control

Row | Substance | MIC (M. tuberculosis MC26020) [µg/mL] | cytotoxicity [1, 3] | cell death (macrophage J774.16 cells; 24 hr) [%] | MIC [2] [µg/mL] | cytotoxicity ([1]; milder than on J774.16 cells, concentration not restated (320 μg/mL in preceding sentence)) | cytotoxic concentration (320 μg/mL) relative to MIC against mycobacteria and streptococci (macrophage J774.16 cells) | cytotoxicity (macrophage J774.16 cells; 320 μg/mL, 24 hr)
1 | ILSLRWRWKWWKK-NH2 [Peptide B1, ILSLRWRWKWWKK] | 32 | – | – | – | – | – | –
2 | ILSLRWWRKWWKK-NH2 [Peptide B2, ILSLRWWRKWWKK] | 32 | Slight cytotoxicity | 20 | – | – | – | –
3 | ILSLRWRWWKWKK-NH2 [Peptide B3, ILSLRWRWWKWKK] | 8 | Slight cytotoxicity | 40 | 64 | some degree of cytotoxicity | at least five times the MIC | moderate cytotoxicity
4 | IRKLKSWKWLRWL-NH2 [Peptide B4, IRKLKSWKWLRWL] | 32 | – | – | – | – | – | –
